# Laboratory results from patent publication US20200345747A1, “USE OF […] THE TREATMENT OF HEMOLYTIC UREMIC SYNDROME” (priority 2017, published 2020).
# Counter-ions that a name gives are not always drawn.
# Columns and labels:
# [1] = test system: muscarinic receptors; details: cited from earlier work
# [2] = biological target: D2 (Homo sapiens, UniProt P14416); details: cited from earlier work
# [3] = test system: alpha1; details: cited from earlier work
# [4] = human, in vivo
# [5] = Initial treatment of patients with atypical HUS (HUSa) with Fenoldopam; assay type: in vivo, human
# [6] = test system: α2 adrenergic receptors; details: cited from earlier work
# [7] = biological target: dopamine receptor D1 (Homo sapiens, UniProt P21728); details: cited from earlier work
# Chain of dopamine receptor D1 (P21728 whole entry, species assumed): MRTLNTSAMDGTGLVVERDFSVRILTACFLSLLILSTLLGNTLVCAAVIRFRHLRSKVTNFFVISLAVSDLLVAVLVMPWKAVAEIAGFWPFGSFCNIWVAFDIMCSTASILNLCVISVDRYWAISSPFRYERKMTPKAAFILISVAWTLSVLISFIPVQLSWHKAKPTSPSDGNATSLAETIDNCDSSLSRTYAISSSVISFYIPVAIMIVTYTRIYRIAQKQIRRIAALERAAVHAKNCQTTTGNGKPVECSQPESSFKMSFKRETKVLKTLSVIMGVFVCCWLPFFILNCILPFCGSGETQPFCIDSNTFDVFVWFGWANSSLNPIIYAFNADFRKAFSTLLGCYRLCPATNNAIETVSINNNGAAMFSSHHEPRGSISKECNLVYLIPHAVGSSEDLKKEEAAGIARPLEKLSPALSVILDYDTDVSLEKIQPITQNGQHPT
# [8] = test system: 5HT2; details: cited from earlier work
# [9] = off-label, doses 10 times lower than the standard dosage; cited from earlier work
# [10] = test system: 5HT1; details: cited from earlier work
# Chain of D2 (P14416 whole entry): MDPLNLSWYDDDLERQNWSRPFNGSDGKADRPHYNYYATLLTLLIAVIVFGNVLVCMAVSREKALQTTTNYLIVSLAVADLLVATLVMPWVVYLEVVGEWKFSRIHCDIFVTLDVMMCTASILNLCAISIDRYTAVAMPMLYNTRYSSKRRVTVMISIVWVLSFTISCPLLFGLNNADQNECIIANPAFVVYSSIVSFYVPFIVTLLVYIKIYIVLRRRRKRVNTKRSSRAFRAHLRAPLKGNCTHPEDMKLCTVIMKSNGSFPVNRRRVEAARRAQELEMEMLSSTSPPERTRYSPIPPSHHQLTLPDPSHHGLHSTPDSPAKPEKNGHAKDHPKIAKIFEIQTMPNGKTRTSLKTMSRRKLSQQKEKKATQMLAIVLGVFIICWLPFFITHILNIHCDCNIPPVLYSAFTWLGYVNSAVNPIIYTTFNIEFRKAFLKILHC
smiles,measurement,setting,value
"Oc1ccc(C2CNCCc3c2cc(O)c(O)c3Cl)cc1 (stereo not shown) [Fenoldopam, Fenoldopam mesylate]",affinity for muscarinic receptors,[1],does not have any affinity
same,affinity for D2 receptors,[2],does not have any affinity
same,affinity for alpha1 receptors,[3],does not have any affinity
same,levels of creatininemia versus control groups,[4],lower (compared with group 1) or equivalent (with group 2)
same,mean days in dialysis,[4],0.3 (CI: 0-1.1) days
same,neurological effects during the acute phase,[4],None
same,permanent kidney or other damage,[4],None
same,preservation of kidney function (subjects treated),[4],10 of the 12
same,"reduction of the real resistive index, ""on"" versus ""off"" therapy",[4],−10.8%
same,side effects attributable to treatment,[4],none
same,subjects needing dialytic support during the acute phase of the disease,[4],17%
same,natural course of the disease,"[5]; three cases of HUSa initially treated, before anti-CS antibody",less aggressive
same,overall outcome after subsequent specific treatment,"[5]; three cases of HUSa, pretreated before anti-CS antibody",complete relief without permanent injuries
same,affinity to α2 adrenergic receptors,[6],weak affinity
same,activity at dopamine receptor D1,[7],partial agonist
same,affinity for 5HT2 receptors,[8],does not have any affinity
same,efficacy in acute renal failure,[9],contrasting efficacy results
same,side effects in acute renal failure use,[9],without the observation of any side effects
same,affinity for 5HT1 receptors,[10],does not have any affinity
